The target of series [1] is T1, Ribonucleoside Diphosphate Reductase (RdR) (Homo sapiens, UniProt P31350).
T1 sequence (P31350 1-389): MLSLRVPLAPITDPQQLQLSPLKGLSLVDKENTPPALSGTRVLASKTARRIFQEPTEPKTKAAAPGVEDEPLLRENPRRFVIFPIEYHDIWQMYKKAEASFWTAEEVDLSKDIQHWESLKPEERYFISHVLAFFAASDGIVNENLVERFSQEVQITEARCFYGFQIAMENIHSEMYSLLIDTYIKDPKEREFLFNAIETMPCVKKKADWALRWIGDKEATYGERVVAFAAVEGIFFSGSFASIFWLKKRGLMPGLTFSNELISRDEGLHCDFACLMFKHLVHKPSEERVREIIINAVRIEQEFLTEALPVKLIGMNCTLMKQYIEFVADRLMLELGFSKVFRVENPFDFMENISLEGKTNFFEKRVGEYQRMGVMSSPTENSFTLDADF
The experiment in a line: Inhibition of ribonucleotide diphosphate reductase. Format: biochemical.

Series [2] in a line: Fate of ⁵⁹Fe tracer incubated with chelator and injected into normal rats (radioiron distribution and excretion). Format: in vivo. The note with it: for Radioiron Distribution in % Feces / Radioiron Distribution in % Total excretion / Radioiron Distribution in % Urine / Radioiron Distribution in % Blood / Radioiron Distribution in % Liver / Radioiron Distribution in % Spleen: 10 mg chelator with ⁵⁹Fe, subcutaneous, normal rats; for Radioiron Distribution in % Feces / Radioiron Distribution in % Total excretion / Radioiron Distribution in % Urine: cumulative within 4 days; for Radioiron Distribution in % Blood / Radioiron Distribution in % Liver / Radioiron Distribution in % Spleen: within 4 days; for TOTAL EXCRETION OF RADIO-IRON IN RATS %: as in Table 1. How it is done:
Table 1 describes the fate of ⁵⁹Fe tracer reincubated […] with 10 mg of some of the above iron chelators and then injected subcutaneously to groups of 4 normal rats. Numbers represent mean cumulative radioiron excretion within 4 days of injection. For comparison, spontaneous excretion of radioiron and the excretion of desferrioxamine (DF) bound radioiron are also given. […]
Spleen and kidney were counted as whole organs.
The excretion of radioiron following ⁵⁹Fe labelling was measured in animals confined to solitary metabolic cages with stainless steel grid bottoms, and stool and urine were collected separately.

Series [3] concerns chloroquine-resistant strain of P. falciparum (FCR-3). As for the experimental part:
Cultures of a chloroquine-resistant strain of P. falciparum (FCR-3), cultivated in human erythrocytes (a technique widely used at the Kuvin Centre, Hebrew University Hadassah Medical School), were suspended in solutions containing chelators and then cultured for 3 days. Growth of parasites was determined by either slide counts or by incorporation of ³H-hypoxanthine. The parasite growth was monitored by microscopic slide counts. […]

Series [4] is described as follows: Mobilization of iron from hepatic parenchymal stores in hypertransfused rats labelled with ⁵⁹Fe-ferritin. As to conditions: for Ferritin-⁵⁹Fe distribution in % Blood / Ferritin-⁵⁹Fe distribution in % Feces / Ferritin-⁵⁹Fe distribution in % Liver / Ferritin-⁵⁹Fe distribution in % Residual / Ferritin-⁵⁹Fe distribution in % Spleen / Ferritin-⁵⁹Fe distribution in % Urine: hypertransfused rats, 40 mg per animal, single subcutaneous injection. Format: in vivo. As for the experimental part:
In each case, 40 mg of each compound was administered per animal in a single subcutaneous injection.
In vivo studies of chelating efficiency were performed in two models: (a) normal rats injected i.p. with 10 mg of either desferrioxamine B (DF), PIH of the prior art, PPH of Example 4 or PPHE from Example 5 labelled in vitro with ⁵⁹Fe; and (b) hypertransfused rats receiving twice 4 ml/100gm packed RBC intravenously 5 and 3 days prior to study (hematocrit 68%) and labelled with ⁵⁹Fe-ferritin injected i.v. 24h prior to iron chelating therapy as described previously. Drugs to be tested in the ⁵⁹Fe-ferritin model were given either by i.p. injection or by gastric tube at a dose of 40 mg per animal. Radioiron excretion and organ distribution were determined after 4 days
The radioactivity of spleen, weighed portions of the liver, and 1 ml samples of blood were determined in an automatic well type scintillation counter (Packard Autogamma Model 5360 Scintillation spectrometer). Spleen and kidney were counted as whole organs.
Whole body counts were performed in a small animal counter (Packard Model 446 Armac) scintillation detector. The excretion of radioiron following ⁵⁹Fe labelling was measured in animals confined to solitary metabolic cages with stainless steel grid bottoms, and stool and urine were collected separately.

The nature of series [5]: Iron chelation in H₂O (spectrophotometric, apparent K), ferrous ions. As to conditions: ferrous versus ferric. Format: physicochemical.
Another series relates to Leukemia P 388. The experiment in a line: Leukemia P 388 survival in mice. Format: in vivo, Mice: female B6D2F1. As to conditions: days 1, 2, 3, 4.
A further series relates to Lewis lung carcinoma. As to the kind of experiment: Inhibition of Lewis lung carcinoma (primary tumor and metastases). Format: in vivo. The text has this: It becomes possible also to look at the ability of one of the compounds (Ex. 1) to inhibit the growth of Lewis lung carcinoma. With a view to possible mechanisms we employed the well-established anti-cancer antibiotics (a) bleomycin, and (b) daunorubicin, as reference compounds.

Setting [6] is: molar concentration 2 x 10⁻⁶, cultured 3 days.

Read-outs that look alike come from different tables or passages of the source.

For the compound `Cc1ncc(CO)c(C=NNc2cnccn2)c1O` [Ex. 6, 1-[2′-pyrazyl]-2-[pyridoxylidene] hydrazine], the “Inhibition of Ribonucleoside Diphosphate Reductase (RdR) %” value in series [1] (dose 1 x 10⁻⁵ M) worked out at 64%; in series [1] (dose 10 x 10⁻⁵ M), 81%; in series [1] (dose 100 x 10⁻⁵ M), 83%.

For the compound `Cc1c(O)c(C=NNC(=O)c2cc[n+](C)cc2)c(CO)c[n+]1C.[I-].[I-]` [Comparative Compound B, 1-[N-methylpyridoxylidenium]-2-[N′-isonicotinoylium] hydrazine dimethiodide, reference compound], in series [2], the “Radioiron Distribution in % Feces” value is reported as 8.6±0.3%, the “Radioiron Distribution in % Total excretion” value was found to be 39.2±1.6%, the “Radioiron Distribution in % Urine” value is given as 30.6±1.12% and the “Radioiron Distribution in % Blood” value is recorded as 25.1±2.2%. For the same compound, in series [2], the “Radioiron Distribution in % Liver” value turned out to be 8.2±0.8% and the “Radioiron Distribution in % Spleen” value was 0.36±0.03%.

As to `Cc1ncc(CO)c(C=NNC(=O)c2cc[n+](C)cc2)c1O.[I-]` [Ex. A, 1-[pyridoxylidene]-2-[N-methylisonicotinoylium] hydrazine iodide, reference compound], the “INHIBITION OF GROWTH OF DRUG-RESISTANT STRAIN OF P. falciparum % INHIBITION” value in series [3] (molar concentration 2 x 10⁻⁵, cultured 3 days) worked out at 16.6%. In addition, in series [2], the “Radioiron Distribution in % Feces” value was determined as 22.7±1.1%, the “Radioiron Distribution in % Total excretion” value is 26.4±1.3%, the “Radioiron Distribution in % Urine” value was found to be 3.7±0.2% and the “Radioiron Distribution in % Blood” value is recorded as 33.3±2.1%. In addition, in series [2], the “Radioiron Distribution in % Liver” value is 12.8±0.2%, the “Radioiron Distribution in % Spleen” value was 0.56±0.02% and the “TOTAL EXCRETION OF RADIO-IRON IN RATS %” value is recorded as 26.4± 1.3%.

Consider “1-[N-ethoxycarbonylmethyl pyridoxylidenium] 2-[2′-pyridyl] hydrazine bromide [Ex. 3]”, for which the “INHIBITION OF GROWTH OF DRUG-RESISTANT STRAIN OF P. falciparum % INHIBITION” value in series [3] (setting [6]) was 90.9%. The “Inhibition of Ribonucleoside Diphosphate Reductase (RdR) %” value in series [1] (dose 10 x 10⁻⁵ M) was “none”. Also, in series [2], the “Radioiron Distribution in % Feces” value turned out to be 57.2±1.1%, the “Radioiron Distribution in % Total excretion” value turned out to be 86.7±1.7%, the “Radioiron Distribution in % Urine” value worked out at 29.5±0.6% and the “Radioiron Distribution in % Blood” value turned out to be 6.4±0.4%. For the same compound, in series [2], the “Radioiron Distribution in % Liver” value is listed as 3.3±0.4%, the “Radioiron Distribution in % Spleen” value was 0.16±0.04% and the “TOTAL EXCRETION OF RADIO-IRON IN RATS %” value is 86.7± 1.7%. Also, in series [4], the “Ferritin-⁵⁹Fe distribution in % Blood” value was 3.8±0.2%, the “Ferritin-⁵⁹Fe distribution in % Feces” value was found to be 57.6±2.9%, the “Ferritin-⁵⁹Fe distribution in % Liver” value was found to be 36.5±1.2% and the “Ferritin-⁵⁹Fe distribution in % Residual” value was determined as 0%. For the same compound, in series [4], the “Ferritin-⁵⁹Fe distribution in % Spleen” value turned out to be 0.4±0.1% and the “Ferritin-⁵⁹Fe distribution in % Urine” value is 1.7±0.1%. The “efficiency as compared to the parenteral administration of the same drug” value in series [4] (oral 40 mg versus parenteral) came to 31%. Moreover, the “effectiveness relative to DF on a weight per weight basis” value in series [4] (rat, in vivo) is listed as 3 times.

In the case of `NC(=O)NO` [Hydroxyurea, reference compound], the “Inhibition of Ribonucleoside Diphosphate Reductase (RdR) %” value in series [1] (dose 1 x 10⁻⁵ M) was found to be 15%; in series [1] (dose 10 x 10⁻⁵ M) it was 37%; in series [1] (dose 100 x 10⁻⁵ M), 73%.

On to `Cc1ncc(CO)c(C=NNc2ncccn2)c1O` [Ex. 4], for which the figures for the “Inhibition of Ribonucleoside Diphosphate Reductase (RdR) %” value in series [1] (dose 1 x 10⁻⁵ M), in series [1] (dose 10 x 10⁻⁵ M) and in series [1] (dose 100 x 10⁻⁵ M) were 30%, 40% and 78%, respectively. Moreover, in series [5], the “higher affinity for ferrous than for ferric ions” value is recorded as about 30 fold.

With `COc1cccc2c1C(=O)c1c(O)c3c(c(O)c1C2=O)C[C@@](O)(C(C)=O)C[C@@H]3O[C@H]1C[C@H](N)[C@H](O)[C@H](C)O1` [Daunorubicin, daunorubicin, reference compound], the “Survivors on Day 20” value with Leukemia P 388 (1 mg/kg i.p.) was 0/10. Besides, in the series with Leukemia P 388 (1 mg/kg i.p., mean survival time treated / controls), the “Activity T/C x 100” value was found to be 154.

With `Cc1ncc(CO)c(C=NNc2ccccn2)c1O` [Ex. 1], in series [3] (setting [6]), the “INHIBITION OF GROWTH OF DRUG-RESISTANT STRAIN OF P. falciparum % INHIBITION” value is given as 93.4%. For the same compound, the “Activity T/C x 100” value in the series with Leukemia P 388 (25 mg/kg i.p.) was 105; in the series on Leukemia P 388 (37.5 mg/kg i.p.) it was 110; in the series with Leukemia P 388 (50 mg/kg i.p., P<0.05 (Mann-Whitney Test)), 126(xxx); with Leukemia P 388 (75 mg/kg i.p.), “Toxic^(xx)”. Also, the “Bodyweights Day 7-Day (g)” value is “+2.6 g” in the series with Leukemia P 388 (25 mg/kg i.p.), “+0.2 g” in the series on Leukemia P 388 (37.5 mg/kg i.p.) and “+0.8 g” in the series with Leukemia P 388 (50 mg/kg i.p.). Besides, the “Survivors on Day 20” value in the series on Leukemia P 388 (25 mg/kg i.p.), with Leukemia P 388 (37.5 mg/kg i.p.), in the series with Leukemia P 388 (50 mg/kg i.p.) and in the series with Leukemia P 388 (75 mg/kg i.p.) was 0/5 in each case. The “Bodyweights Day 7-Day” value with Leukemia P 388 (75 mg/kg i.p.) was -0.6 g. The “Inhibition of Ribonucleoside Diphosphate Reductase (RdR) %” value in series [1] (dose 6.7 x 10⁻⁵ M (20 µg/ml)) was found to be 72%. Further, the “Inhibition of Lewis Carcinoma Metastases %” value with Lewis lung carcinoma (dose 25 mg/kg) stood at 41%. Also, the “Inhibition of Lewis Carcinoma Primary Tumor %” value in the series on Lewis lung carcinoma (dose 25 mg/kg) turned out to be 0%. Besides, the “TOTAL EXCRETION OF RADIO-IRON IN RATS %” value in series [2] is reported as 34.2%.

As to bleomycin [reference compound], in the series with Lewis lung carcinoma (dose 1.25 mg/kg), the “Inhibition of Lewis Carcinoma Metastases %” value was found to be 48% and the “Inhibition of Lewis Carcinoma Primary Tumor %” value was 24%.

For the compound “1-[N-methylpyridoxylidenium]-2-[methyl pyridiniumn] hydrazine hydroxido iodide [Ex. 2]”, in series [2], the “Radioiron Distribution in % Feces” value was 27.0±2.2%, the “Radioiron Distribution in % Total excretion” value amounted to 66.0±5.3%, the “Radioiron Distribution in % Urine” value was 39.0±3.1% and the “Radioiron Distribution in % Blood” value amounted to 13.3±2.3%. Besides, in series [2], the “Radioiron Distribution in % Liver” value turned out to be 6.8±0.4% and the “Radioiron Distribution in % Spleen” value stood at 0.51±0.02%. In addition, in series [4], the “Ferritin-⁵⁹Fe distribution in % Blood” value worked out at 3.0±0.1%, the “Ferritin-⁵⁹Fe distribution in % Feces” value is 58.9±3.0%, the “Ferritin-⁵⁹Fe distribution in % Liver” value was 35.5±1.7% and the “Ferritin-⁵⁹Fe distribution in % Residual” value came to 0%. Besides, in series [4], the “Ferritin-⁵⁹Fe distribution in % Spleen” value worked out at 0.4±0.1% and the “Ferritin-⁵⁹Fe distribution in % Urine” value worked out at 2.2±0.1%.

For `Cc1ncc(CO)c(C=NNc2ccccn2)c1O.O=S(=O)([O-])[O-].[Cu+2]` [Ex. 7], the “INHIBITION OF GROWTH OF DRUG-RESISTANT STRAIN OF P. falciparum % INHIBITION” value in series [3] (molar concentration 1 x 10⁻¹², after 2 hours of exposure) is given as 100 ^(**) %.

These data come from patent EP0315434A2, “Pyridoxal hydrazone derivatives their production and use and pharmaceutical compositions containing the same” (YISSUM RESEARCH DEVELOPMENT COMPANY OF THE HEBREW …, priority 1987, dated 1989).
